Values of other authors in US20080260864A1, “Topical Compositions for the Treatment of Depilation-Induced Irritation or Prevention Thereof” (MEDIDERMIS LTD., priority 2005, published 2008).

System: skin / tissue
[1] = Hawley's Condensed Chemical Dictionary

effect of repeated applications (UpToDate drug information) | SMILES | irritancy to tissue [1] | toxicity by ingestion [1] | skin irritation (The Merck Index)
– | [Al+3].[Cl-].[Cl-].[Cl-] [Anhydrous aluminium chloride, Aluminium chloride anhydrous] | powerful irritant | moderately toxic | –
may cause contact dermatitis | S1SSSSSSS1 [Sulfur] | – | – | may cause skin irritation
